Values quoted from earlier work in publication PMC6311893, “Computational prediction of plasma protein binding of cyclic peptides from small molecule experimental data using sparse modeling techniques” (BMC Bioinformatics, 2018).
Where two headings read alike, the source gives them in different places.

Test system: plasma protein
Details: cited from earlier work
[1] = fraction bound to plasma protein, small molecule dataset, sheet 1-SM, Set Dtr, ref Ingle et al.
[2] = fraction bound to plasma protein, small molecule dataset, sheet 1-SM, ref Ingle et al.
[3] = fraction bound to plasma protein, small molecule dataset, sheet 1-SM (Set Dte = test, Dtr = training), ref Ingle et al.

CCCNC(=O)NS(=O)(=O)c1ccc(Cl)cc1 [Chlorpropamide]
PPB (fb) [1]: 0.96

CN(C)CCCN1c2ccccc2Sc2ccc(Cl)cc21 [Chlorpromazine]
PPB (fb) [1]: 0.96

CC(C(=O)O)c1cccc(Oc2ccccc2)c1 (stereo not shown) [fenoprofen]
PPB (fb) [2]: 0.99

CC(C)(O)C(Cl)(Cl)Cl [chlorobutanol]
PPB (fb) [3]: 0.55

CCOc1cnc2ccccc2c1C(=O)NC1C(=O)N2C1SC(C)(C)C2C(=O)O (stereo not shown) [penicillin78]
PPB (fb) [2]: 0.7

CN1CCN(CCCCN2C(=O)CN(/N=C/c3ccc(-c4ccc(Cl)cc4)o3)C2=O)CC1 [Azimilide]
PPB (fb) [1]: 0.94

COCC(=O)Nc1c(I)c(C(=O)NCC(O)CO)c(I)c(C(=O)N(C)CC(O)CO)c1I (stereo not shown) [Iopromide]
PPB (fb) [1]: 0.01

CC(C(=O)O)c1ccc(N2Cc3ccccc3C2=O)cc1 (stereo not shown) [indoprofen]
PPB (fb) [2]: 0.99

OC(c1cc(C(F)(F)F)nc2c(C(F)(F)F)cccc12)C1CCCCN1 (stereo not shown) [mefloquine]
PPB (fb) [2]: 0.97

COC(C(=O)NC1C(=O)N2C1SC(C)(C)C2C(=O)O)c1ccc(Cl)c(Cl)c1 (stereo not shown) [penicillin56]
PPB (fb) [2]: 0.95

C[C@@H]([C@@H](O)c1ccc(O)cc1)N1CCC(O)(c2ccccc2)CC1 [Traxoprodil]
PPB (fb) [3]: 0.37

Cc1nccn1CC1CCc2c(c3ccccc3n2C)C1=O (stereo not shown) [Ondansetron]
PPB (fb) [1]: 0.73

CC(=O)NCCCS(=O)(=O)O [acamprosate]
PPB (fb) (plasma): 0.03

CN(C)CCCOc1nn(Cc2ccccc2)c2ccccc12 [benzydamine]
PPB (fb) [3]: 0.1

CC1=C(/C=C/C(C)=C/C=C/C(C)=C\C(=O)O)C(C)(C)CCC1 [isotretinoin]
PPB (fb) [2]: 0.95

C[n+]1ccccc1/C=N/O [pralidoxime chloride]
PPB (fb) [2]: 0.05

NCC1OC(OC2C(CO)OC(OC3C(O)C(N)CC(N)C3OC3OC(CN)C(O)C(O)C3N)C2O)C(N)C(O)C1O (stereo not shown) [neomycin]
PPB (fb) [2]: 0.2

CN1CCC(=C2c3ccccc3CC(=O)c3sccc32)CC1 [ketotifen]
PPB (fb) [2]: 0.8

C[C@]12CCC(=O)C=C1C=C[C@@H]1[C@@H]2CC[C@@]2(C)[C@H]1CC[C@@]2(O)CCC(=O)O [canrenoate]
PPB (fb) [3]: 0.94

O=C1NCCN1c1ncc([N+](=O)[O-])s1 [niridazole]
PPB (fb) [3]: 0.85

CO[C@H]1/C=C/O[C@@]2(C)Oc3c(C)c(O)c4c(O)c(c(/C=N/N5CCN(C)CC5)c(O)c4c3C2=O)NC(=O)/C(C)=C\C=C\[C@H](C)[C@H](O)[C@@H](C)[C@@H](O)[C@@H](C)[C@H](OC(C)=O)[C@@H]1C [Rifampin]
PPB (fb) [2]: 0.77

CN(C)CC/C=C1\c2ccccc2CSc2ccccc21 [dothiepin]
PPB (fb) [2]: 0.85

CN1CCN(C2=Nc3cc(Cl)ccc3Nc3ccccc32)CC1 [Clozapine]
PPB (fb) [1]: 0.95

COc1ccc(O)cc1C(C)(C)C [2-butyl-4-hydroxyanisole]
PPB (fb) [3]: 0.85

CC1CCCC(C)N1CCCC(O)(c1ccccc1)c1ccccn1 (stereo not shown) [Pirmenol]
PPB (fb) [1]: 0.87

CO/N=C(\C(=O)N[C@@H]1C(=O)N2C(C(=O)O)=CCS[C@H]12)c1csc(N)n1 [Ceftizoxime]
PPB (fb) [1]: 0.28

CC[C@H]1OC(=O)[C@H](C)[C@@H](O[C@H]2C[C@@](C)(OC)[C@@H](O)[C@H](C)O2)[C@H](C)[C@@H](O[C@@H]2O[C@H](C)C[C@H](N(C)C)[C@H]2O)[C@](C)(O)C[C@@H](C)C(=O)[C@H](C)[C@@H](O)[C@]1(C)O [Erythromycin]
PPB (fb) [1]: 0.86

COc1c(C)c2c(c(O)c1C/C=C(\C)CCC(=O)O)C(=O)OC2 [mycophenolic acid]
PPB (fb) [2]: 0.96

CN1CCN2c3ccccc3Cc3ccccc3C2C1 (stereo not shown) [mianserin]
PPB (fb) [2]: 0.93

CC1(C)SC2C(NC(=O)C(NC(=O)c3ccccn3)c3ccccc3)C(=O)N2C1C(=O)O (stereo not shown) [penicillin36]
PPB (fb) [2]: 0.63

C=CC1(O)CN2CCC1CC2C(O)c1ccnc2ccc(OC)cc12 (stereo not shown) [3-Hydroxy Quinidine]
PPB (fb) (plasma): 0.6

CCN(CC)CCCN(c1ccccc1)C1Cc2ccccc2C1 [aprindine]
PPB (fb) [3]: 0.95

CO[C@H]1[C@@H](O)C[C@H](O[C@H]2[C@@H](O)C[C@H](O[C@H]3[C@@H](O)C[C@H](O[C@H]4CC[C@@]5(C)[C@H](CC[C@@H]6[C@@H]5C[C@@H](O)[C@]5(C)[C@@H](C7=CC(=O)OC7)CC[C@]65O)C4)O[C@@H]3C)O[C@@H]2C)O[C@@H]1C [metildigoxin]
PPB (fb) (plasma): 0.15

C#C[C@]1(O)CC[C@H]2[C@@H]3CCC4=CC(=O)CC[C@@H]4[C@H]3CC[C@@]21CC [Levonorgestrel]
PPB (fb) [1]: 0.975

Fc1ccc(C(c2ccc(F)cc2)N2CCN(C/C=C/c3ccccc3)CC2)cc1 [flunarizine]
PPB (fb) [2]: 0.95

O=C1CN=C(c2ccccc2Cl)c2cc(Cl)ccc2N1 [Delorazepam (Chlordesmethyldiazepam)]
PPB (fb) (plasma): 0.95

C#CCN(C)[C@H](C)Cc1ccccc1 [Selegiline]
PPB (fb) (plasma): 0.9

CC(=O)Nc1c(I)c(NC(C)=O)c(I)c(C(=O)O)c1I [Diatrizoic Acid (Amidotrizoate)]
PPB (fb) [3]: 0.02

Nicardipine
PPB (fb) (plasma): 0.98

S=P(N1CC1)(N1CC1)N1CC1 [Thiotepa]
PPB (fb) [2]: 0.1

CC[C@@H](C(N)=O)N1CCCC1=O [levetiracetam]
PPB (fb) [2]: 0.05

CC(=O)Oc1cc(C(C)C)c(OCCN(C)C)cc1C [Moxisylyte]
PPB (fb) [2]: 0.26

COCCOc1cnc(NS(=O)(=O)c2ccccc2)nc1 [glymidine]
PPB (fb) [2]: 0.8

CCCCC1=NC2(CCCC2)C(=O)N1Cc1ccc(-c2ccccc2-c2nnn[nH]2)cc1 [Irbesartan]
PPB (fb) [1]: 0.9

COC(=O)N[C@H](C(=O)N[C@@H](Cc1ccccc1)[C@@H](O)CN(Cc1ccc(-c2ccccn2)cc1)NC(=O)[C@@H](NC(=O)OC)C(C)(C)C)C(C)(C)C [Atazanavir]
PPB (fb) [3]: 0.86

CC1(C)S[C@@H]2[C@H](NC(=O)[C@H](NC(=O)N3CCNC3=O)c3ccccc3)C(=O)N2[C@H]1C(=O)O [Azlocillin]
PPB (fb) [1]: 0.32

O=C(O)c1ccc(O)cc1 [p-hydroxybenzoic acid]
PPB (fb) [2]: 0.35

CCC[C@@H]1C[C@@H](C(=O)N[C@@H]([C@H]2O[C@H](SC)[C@H](O)[C@@H](O)[C@H]2O)[C@@H](C)O)N(C)C1 [Lincomycin]
PPB (fb) [1]: 0.76

CN1CCC(=C2c3ccccc3CCc3sccc32)CC1 [pizotyline]
PPB (fb) [3]: 0.91

CC1(C)SC2C(NC(=O)C(N=[N+]=[N-])c3ccccc3)C(=O)N2C1C(=O)O (stereo not shown) [azidocillin]
PPB (fb) [3]: 0.8

COc1ccc2c3c1O[C@H]1C(=O)CC[C@@]4(O)[C@@H](C2)N(C)CC[C@]314 [Oxycodone]
PPB (fb) (plasma): 0.45

OC(Cn1cncn1)(Cn1cncn1)c1ccc(F)cc1F [Fluconazole]
PPB (fb) [1]: 0.16

CC(C(=O)NCCN1CCCC1)c1ccc(OS(=O)(=O)C(F)(F)F)cc1 (stereo not shown) [JMC_04]
PPB (fb) [2]: 0.7

Cc1ccnc(NS(=O)(=O)c2ccc(N)cc2)n1 [sulfamerazine]
PPB (fb) [2]: 0.85

C/C(=C\C(=O)OCCCCCCCCC(=O)O)C[C@@H]1OC[C@H](C[C@@H]2O[C@H]2[C@@H](C)[C@H](C)O)[C@@H](O)[C@H]1O [mupirocin]
PPB (fb) [2]: 0.96

Cn1cnc([N+](=O)[O-])c1Sc1ncnc2nc[nH]c12 [azathioprine]
PPB (fb) [3]: 0.25

Cc1onc(-c2c(F)cccc2Cl)c1C(=O)N[C@@H]1C(=O)N2[C@@H]1SC(C)(C)[C@@H]2C(=O)O [Flucloxacillin]
PPB (fb) [1]: 0.95

CCOC(=O)n1ccn(C)c1=S [carbimazole]
PPB (fb) [3]: 0.07

C[C@H]1O[C@H](O[C@H]2[C@H](O)[C@@H](O)[C@@H](O[C@H]3[C@H](O)[C@@H](O)C(O)O[C@@H]3CO)O[C@@H]2CO)[C@H](O)[C@@H](O)[C@@H]1N[C@H]1C=C(CO)[C@@H](O)[C@H](O)[C@H]1O (stereo partly shown) [acarbose]
PPB (fb) [3]: 0.15

O=C(O)[C@H]1O[C@@H](Oc2cc3oc(-c4ccccc4)cc(=O)c3c(O)c2O)[C@H](O)[C@@H](O)[C@@H]1O [baicalin]
PPB (fb) [3]: 0.66

COc1cc2c(cc1OC)C1CC(=O)C(CC(C)C)CN1CC2 (stereo not shown) [tetrabenazine]
PPB (fb) [2]: 0.85

CC(=O)Nc1nnc(S(N)(=O)=O)s1 [Acetazolamide]
PPB (fb) [1]: 0.92

C=CC[C@@H]1/C=C(\C)C[C@H](C)C[C@H](OC)[C@H]2O[C@@](O)(C(=O)C(=O)N3CCCC[C@H]3C(=O)O[C@H](/C(C)=C/[C@@H]3CC[C@@H](O)[C@H](OC)C3)[C@H](C)[C@@H](O)CC1=O)[C@H](C)C[C@@H]2OC [Tacrolimus]
PPB (fb) [2]: 0.99

CCCSc1ccc2nc(NC(=O)OC)[nH]c2c1 [albendazole]
PPB (fb) [3]: 0.7

Sc1ncnc2nc[nH]c12 [Mercaptopurine]
PPB (fb) [3]: 0.17

Cc1ccc(C(=O)c2ccc(CC(=O)O)n2C)cc1 [tolmetin]
PPB (fb) [1]: 0.99

O=C(O)c1cc(/N=N/c2ccc(S(=O)(=O)Nc3ccccn3)cc2)ccc1O [sulfasalazine]
PPB (fb) [2]: 0.97

CNCC[C@@H](Oc1ccccc1C)c1ccccc1 [Atomoxetine]
PPB (fb) [1]: 0.97

COC(CC(=O)NC1C(=O)N2C1SC(C)(C)C2C(=O)O)c1ccc(Br)s1 (stereo not shown) [penicillin74]
PPB (fb) [2]: 0.9

C[C@H](O)C(=O)Nc1c(I)c(C(=O)NC(CO)CO)c(I)c(C(=O)NC(CO)CO)c1I [Iopamidol]
PPB (fb) [1]: 0

CO/N=C1\CN(c2nc3c(cc2F)c(=O)c(C(=O)O)cn3C2CC2)CC1CN (stereo not shown) [Gemifloxacin]
PPB (fb) [2]: 0.64

CN1CC[C@H](c2c(O)cc(O)c3c(=O)cc(-c4ccccc4Cl)oc23)[C@H](O)C1 [Flavopiridol]
PPB (fb) [1]: 0.94

CN(C)c1nc(N(C)C)nc(N(C)C)n1 [altretamine]
PPB (fb) [3]: 0.94

Cc1oncc1C(=O)Nc1ccc(C(F)(F)F)cc1 [leflunomide]
PPB (fb) [2]: 0.99

O=C(O)c1cn(-c2ccc([N+](=O)[O-])cc2)c2cc(N3CCNCC3)c(F)cc2c1=O [7c(p-NO2)]
PPB (fb) [3]: 0.3

CC(Cc1ccc(O)cc1)NCC(O)c1cc(O)cc(O)c1 (stereo not shown) [Fenoterol]
PPB (fb) (plasma): 0.47

CCOCC(=O)NC1C(=O)N2C1SC(C)(C)C2C(=O)O (stereo not shown) [penicillin6]
PPB (fb) [2]: 0.28

COc1ccc(C(=O)Nc2ccccc2CCC2CCCCN2C)cc1 (stereo not shown) [Encainide]
PPB (fb) [1]: 0.72

CC(C(N)=O)c1ccc(OS(=O)(=O)C(F)(F)F)cc1 (stereo not shown) [JMC_03]
PPB (fb) [2]: 0.92
